Data on 4 compounds can be found in patent US8673914B2, “Use of phosphodiesterase inhibitors for treating multidrug resistance” (St. John's University, priority 2011, dated 2014).

In series [1] the test system is HEK 293-pcDNA-3.1. Kind of series: MTT cytotoxicity assay (Example 4). The format is cell-based. The protocol:
(§1) The MRP7 cDNA was generously provided by Dr. Gary Kruh (University of Illinois, Chicago, Ill.) and inserted into the pcDNA3.1 expression vector. […] Individual colonies were selected in medium containing G418 (1 mg/ml) and cultured for further analysis.
(§2) MTT colorimetric assay was performed to analyze the drug sensitivity as previously described (Shi et al. (2007) Cancer Res. 67:11012-20). HEK293-pcDNA3.1 and HEK/MRP7 cells were seeded into 96-well plates in triplicate at 6000 cells/well.
(§3) After drug incubation of 68 h, 20 μl MTT solution (4 mg/ml) was added into each well. […] The Bliss method was used to calculate the IC50 values according to survival curves.
In general terms: Tetrazolium dyes change colour on reduction, which living cells bring about.

Series [2] relates to HEK/MRP7. Kind of series: MTT cytotoxicity assay (Example 4). The format is cell-based. The following applies: alone. As for the experimental part: as §1, §2, §3
Series [3] can be described thus: MTT cytotoxicity assay (Example 4). The note with it: human, HEK/MRP7, alone. The format is cell-based. As for the experimental part: as §1, §2, §3
Series [4] concerns parental cells. Kind of series: [^3H]-mitoxantrone accumulation. The format is cell-based. The protocol: (§4) After washing 3 times with ice-cold PBS, the cells were trypsinized and lysed in 10 mM lysis buffer (pH 7.4, containing 1% Triton X-100 and 0.2% SDS). Each sample was placed in scintillation fluid and radioactivity was measured in a Packard TRI-CARB 1900CA liquid scintillation analyzer from Packard Instrument Company, Inc.

The subject of series [5] is ABCG2-482-R2 (ABCG2). Kind of series: MTT cytotoxicity/reversal assay (Example 1). The following applies: +10 μM reversal agent. The protocol:
(§5) The KB-C2 and KB-3-1 were kindly provided by Dr. Akiyama (Kagoshima University, Japan). HEK293-pcDNA3.1 and wild-type HEK/ABCG2 transfected cells were established by selection with G418 after transfecting HEK293 with either (1) empty pcDNA3.1 vector or (2) pcDNA3.1 vector containing full length of ABCG2 coding arginine (R) at amino acid position 482, and were then cultured in a medium with 2 mg/ml of G418 (ABCG2-482-R2 cells). Similarly, the HEK/MRP1 (ABCC1) and HEK/ABCB1 cells were generated by transfecting the HEK293 cells with either the MRP1 expression vector or the ABCB1 expression vector. All of the cell lines were grown in Dulbecco's modified Eagle's medium (DMEM) supplemented with 10% bovine serum, 100 units/ml penicillin, and […] streptomycin in a humidified incubator containing 5% CO2 at 37° C.
(§6) The MTT assay was used to assess cytotoxicity. The cultured cells were harvested with trypsin and resuspended in a final concentration of 4×10^3 cells/well for KB-3-1; 7.5×10^3 cells/well for KB-C2; and 8×10^3 for all of the other cell lines used in this study. Cells were seeded evenly in 96-well multiplates. […] After 68 h of incubation, 20 μl of the MTT solution (4 mg/ml) was added to each well, and the plate was further incubated for 4 h at 37° C., allowing viable cells to convert the yellow-colored MTT into dark-blue formazan crystals. Subsequently, the medium was discarded, and 100 μl of DMSO was added into each well to dissolve the formazan crystals, generating purple color. The absorbance was determined at 570 nm by an OPSYS Microplate Reader from DYNEX Technologies, Inc. (Chantilly, Va.). […] The degree of the reversal of multidrug resistance (MDR) was calculated by dividing the IC50 of an anticancer drug, e.g., an antineoplastic or chemotherapeutic drug (agent, compound), in a cell type in the absence of a reversal agent by the IC50 of the anticancer drug in the same cell type in the presence of the reversal agent. The IC50 values were calculated from survival curves using the Bliss method.

For series [6], the target named is ABCG2 (Homo sapiens, UniProt Q9UNQ0). The series is described as follows: Photoaffinity labeling with [^125I]-IAAP (Example 2). The format is binding. The following applies: 10 μM. Details: endogenous in cells; host or cells: MCF7/FLV1000 (MCF-7/Flv1000) crude membranes. The protocol: The photoaffinity labeling of ABCB1 and ABCG2 with [^125I]-IAAP was conducted as described in Sauna et al., supra. The crude membranes from HIGH FIVE™ insect cells expressing ABCB1 and MCF7/FLV1000 cells expressing R482 ABCG2 (50 μg of protein) were incubated at room temperature with different concentrations of drugs in 50 mM Tris-HCl (pH 7.5) with [^125I]-IAAP (5-7 nM) for 5 min under subdued light. […] ABCB1 and ABCG2 were immunoprecipitated using BXP-21 antibodies as described in Shukla et al., supra. Both ABCB1 and ABCG2 samples were subjected to SDS-PAGE in a 7% Trisacetate NuPAGE gel, the gel was dried, and exposed to Bio-Max MR film (Eastman Kodak Co.) at −70° C. for 8 to 12 h. The radioactivity incorporated into the ABCB1 or ABCG2 band was quantified using the STORM 860 Phosphorlmager System and ImageQuaNT (Molecular Dynamics).
Sequence of ABCG2 (Q9UNQ0 whole entry): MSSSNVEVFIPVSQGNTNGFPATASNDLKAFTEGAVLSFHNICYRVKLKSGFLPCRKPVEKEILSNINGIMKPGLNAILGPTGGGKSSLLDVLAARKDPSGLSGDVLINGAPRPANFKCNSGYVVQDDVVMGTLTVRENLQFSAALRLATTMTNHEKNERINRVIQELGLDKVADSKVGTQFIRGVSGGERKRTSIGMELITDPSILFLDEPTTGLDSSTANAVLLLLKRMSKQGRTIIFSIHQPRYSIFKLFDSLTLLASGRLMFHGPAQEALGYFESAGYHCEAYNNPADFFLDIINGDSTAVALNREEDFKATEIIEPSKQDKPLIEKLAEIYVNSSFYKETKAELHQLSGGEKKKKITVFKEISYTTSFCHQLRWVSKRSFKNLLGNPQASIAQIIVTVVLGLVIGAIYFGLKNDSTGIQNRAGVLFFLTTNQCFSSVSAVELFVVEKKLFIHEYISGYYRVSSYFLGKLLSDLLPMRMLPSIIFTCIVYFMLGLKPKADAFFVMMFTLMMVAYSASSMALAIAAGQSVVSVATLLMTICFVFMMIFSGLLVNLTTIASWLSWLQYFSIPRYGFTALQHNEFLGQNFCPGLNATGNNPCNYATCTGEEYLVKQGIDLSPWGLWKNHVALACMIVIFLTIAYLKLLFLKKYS

Series [7] is described as follows: In vitro transport assay, membrane vesicles. The format is biochemical. The note with it: HEK293/pcDNA3.1 vesicles. As for the experimental part: Transport assays were carried out using the rapid filtration method as described in Chen et al. (2003) Cancer Res. 63:4048-54. […] Reactions were stopped by the addition of 3 mL of ice-cold stop solution (0.25 M sucrose, 100 mM NaCl, and 10 mM Tris-HCl, pH 7.4). During the rapid filtration step, samples were passed through 0.22 μm GVWP filters (Millipore) presoaked in the stop solution. The filters were washed three times with 3 mL of ice-cold stop solution. Radioactivity was measured by liquid scintillation counting.

Series [8] relates to HEK293/pcDNA3.1. Kind of series: MTT cytotoxicity/reversal assay (Example 1). The format is cell-based. The note with it: HEK293/pcDNA3.1; +10 μM reversal agent. The protocol: as §5, §6
The subject of series [9] is KB-3-1 cells. Kind of series: [^3H]-paclitaxel accumulation (Example 2). The format is cell-based, human. The note with it: parental KB-3-1. The protocol: as §4
In series [10] the test system is KB-3-1. The series is described as follows: MTT cytotoxicity/reversal assay (Example 2). The format is cell-based, human. The note with it: alone. As for the experimental part: (§7) The ABCB1-overexpressing drug resistant cell line KB-V1 (generously provided by Dr. Gottesman, NCI, NIH) was established by a stepwise concentration increase of vinblastine in the culture medium of KB-3-1 cells and subsequently culturing these cells in medium with 1 μg/mL of vinblastine. An ABCC1-overexpressing MDR cell line, KB-CV60, was also derived from KB-3-1 cells and was maintained in medium with 1 μg/mL of cepharanthine and 60 ng/mL of vincristine. Both KB-C2 and KB-CV60 cell lines were kindly provided by Dr. Akiyama (Kagoshima University, Japan). HEK293/pcDNA3.1, ABCG2-482-R5, ABCG2-482-G2, and ABCG2-482-T7 cells were established by selection with 2 mg/mL G418 after transfecting HEK293 with either (1) empty pcDNA3.1 vector or (2) pcDNA3.1 vector containing full length ABCG2 coding either (2a) wild-type arginine (R) or mutant (2b) glycine (G) or (2c) threonine (T) at amino acid position 482, respectively. The wild-type ABCG2-overexpressing drug-resistant cell line MCF-7/Flv1000 was cultured in the medium with 1 μM of flavopiridol. […] Another G482 mutant ABCG2-overexpressing drug resistant cell line, S1-M1-80, was maintained in the medium with 80 μM of mitoxantrone. […] All the cell lines were grown as adherent monolayers in flasks with DMEM (Dulbecco's modified Eagle's medium) culture medium (Hyclone Co.) containing 10% bovine serum at 37° C. in a humidified atmosphere of 5% CO2.
(§8) Cells in 96-well plates were preincubated with or without the reversal agents for 1 h and then different concentrations of chemotherapeutic drugs were added into designated wells. After 68 h of incubation, MTT solution (4 mg/mL) was added to each well, and the plate was further incubated for 4 h, allowing viable cells to change the yellow-colored MTT into dark-blue formazan crystals. Subsequently the medium was discarded, and […] of DMSO was added into each well to dissolve the formazan crystals. The absorbance was determined at 570 nm by an OPSYS MR Microplate Reader from DYNEX Technologies, Inc.

For series [11], the system named is KB-C2. Kind of series: MTT cytotoxicity/reversal assay (Example 2). The format is cell-based, human. The note with it: alone. The protocol:
as §7, §8

Series [12] relates to KB-V1. Kind of series: MTT cytotoxicity/reversal assay (Example 2). The following applies: alone. The format is cell-based, human. As for the experimental part:
as §7, §8

Like-named read-outs stand apart in the source and are kept apart here. Marks after values point to notes of the source that are not given here.

The IC50 is the concentration that inhibits the measured activity by half. As for `CC(=O)O[C@@]12CO[C@@H]1C[C@H](O)[C@@]1(C)C(=O)[C@H](O)C3=C(C)[C@@H](OC(=O)[C@H](O)[C@@H](NC(=O)OC(C)(C)C)c4ccccc4)C[C@@](O)([C@@H](OC(=O)c4ccccc4)[C@H]21)C3(C)C` [Docetaxel, docetaxel], the “fold-resistance, docetaxel” value is listed as “(1.0)” in series [1] (HEK 293-pcDNA-3.1, alone) and “(11.31)” in series [2]. In addition, the IC50 in series [1] (read-out: IC50 of docetaxel) was 5.73 ± 0.65 nM. Also, the IC50 at 68 h in series [3] (read-out: IC50 of docetaxel) amounted to 64.8 ± 5.19 nM.
In the case of `COc1ccc2c3c([nH]c2c1)[C@H](C=C(C)C)N1C(=O)[C@@H]2CCCN2C(=O)[C@@H]1C3` [FTC, Fumitremorgin C], the “intracellular levels of [^3H]-mitoxantrone” value in series [4] is on record as “Neither sildenafil nor FTC affected the intracellular levels”. For the same compound, the entries for the “fold reversal, SN-38” value in [5] and in series [8] were “(3.84)” and “(1.13)”, respectively. In addition, the “inhibition of [^125I]-IAAP photolabeling” value in series [6] was “about 40%”. Moreover, the “uptake rates of methotrexate and E217βG” value in [7] is “moderately decreased the uptake rates”.
On to `COc1ccc(CCN(C)CCCC(C#N)(c2ccc(OC)c(OC)c2)C(C)C)cc1OC` (centres unmarked) [Verapamil, verapamil], for which the “intracellular levels of [^3H]-paclitaxel” value in series [9] is given as “Neither sildenafil nor verapamil altered the intracellular levels”.
Take `CC[C@]1(O)C[C@@H]2CN(CCc3c([nH]c4ccccc34)[C@@](C(=O)OC)(c3cc4c(cc3OC)N(C)[C@H]3[C@@](O)(C(=O)OC)[C@H](OC(C)=O)[C@]5(CC)C=CCN6CC[C@]43[C@@H]65)C2)C1` [Vinblastine, vinblastine]: the “fold-resistance, vinblastine” value in [10] is given as “(1.0)^c”; in [11], “(10.3)”; in [12], “(120.1)”; in [1] (HEK 293-pcDNA-3.1, alone), “(1.0)”; in series [2], “(5.03)”. The IC50 in series [1] (read-out: IC50 of vinblastine) amounted to 11.2 ± 1.23 nM. Moreover, the IC50 at 68 h in [3] (read-out: IC50 of vinblastine) was found to be 56.3 ± 4.61 nM.
